Four molecules from patent publication US4990337A (priority 1988, dated 1991) can be followed below.

The series is described as follows: Test Example 2: emulsifiability of intermediate molecular weight fatty acid glycerides in water, test tube shaking. It counts as physicochemical. Particulars: 1 ml glyceride and 9 ml water; for stability of the emulsion (separation between oil and water): on standing; for Emulsifiability: test tube shaken. Here is the method:
1 ml of an intermediate molecular weight fatty acid glyceride and 9 ml of water were placed in a test tube, and the test tube was shaken lightly to examine the emulsifiability of the intermediate molecular weight fatty acid glyceride.
The intermediate molecular weight fatty acid glycerides examined in this Example were caprylic acid mono-, di- and tri- glycerides and caproic acid diglyceride.

For `CCCCCCCC(=O)OCC(COC(=O)CCCCCCC)OC(=O)CCCCCCC` [Caprylic acid triglyceride], the “stability of the emulsion (separation between oil and water)” value is “tended to separate into oil and water”; the Emulsifiability entry is “emulsified only after vigorous shaking by hand”.

In the case of Caproic acid diglyceride, the Emulsifiability entry is recorded as “intermediate emulsifiability”.

For the molecule Caprylic acid monoglyceride, the “stability of the emulsion (separation between oil and water)” value is “the emulsion was very stable”; the Emulsifiability result is “emulsified in a manner very close to self-emulsification”.

Regarding caprylic acid diglyceride, the Emulsifiability entry is “intermediate emulsifiability”.
